What was measured:
Hepatotoxicity [1] = system: Hepatotoxicity;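 on HepSE bilirubinemia: bilirubinemia hepatic side effect score drawn from the DILIps training data, a prediction system for drug-induced liver injury; call rule not given here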;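 on HepSE cholecystitis: Cholecystitis-related hepatic side effect score drawn from the DILIps (drug-induced liver injury prediction) training data set; call rule not given here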;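 on HepSE cholelithiasis: hepatic side effect score for cholelithiasis, drawn from the DILIps training data for predicting drug-induced liver injury; call rule not given here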;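 on HepSE cirrhosis: cirrhosis hepatic side effect score taken from the DILIps (drug-induced liver injury prediction) training set; call rule not given here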;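 on HepSE elevated liver function tests: hepatic side effect score for raised liver function tests, as recorded in the DILIps training set used for predicting drug-induced liver injury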; on HepSE hepatic failure: call rule not given here;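 on HepSE hepatomegaly: hepatic side effect score for hepatomegaly, taken from the training set of the DILIps drug-induced liver injury prediction system; call rule not given here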
Hepatotoxicity [2] = system: Hepatotoxicity; remark: listed apart in the source;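 on HepSE bilirubinemia: bilirubinemia hepatic side effect score drawn from the DILIps training data, a prediction system for drug-induced liver injury; call rule not given here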;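 on HepSE cholecystitis: Cholecystitis-related hepatic side effect score drawn from the DILIps (drug-induced liver injury prediction) training data set; call rule not given here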;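 on HepSE cholelithiasis: hepatic side effect score for cholelithiasis, drawn from the DILIps training data for predicting drug-induced liver injury; call rule not given here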;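 on HepSE cirrhosis: cirrhosis hepatic side effect score taken from the DILIps (drug-induced liver injury prediction) training set; call rule not given here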;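 on HepSE elevated liver function tests: hepatic side effect score for raised liver function tests, as recorded in the DILIps training set used for predicting drug-induced liver injury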; on HepSE hepatic failure: call rule not given here;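 on HepSE hepatomegaly: hepatic side effect score for hepatomegaly, taken from the training set of the DILIps drug-induced liver injury prediction system; call rule not given here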
Hepatotoxicity [3] = system: Hepatotoxicity; remark: listed apart in the source;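 on HepSE bilirubinemia: bilirubinemia hepatic side effect score drawn from the DILIps training data, a prediction system for drug-induced liver injury; call rule not given here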;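 on HepSE cholecystitis: Cholecystitis-related hepatic side effect score drawn from the DILIps (drug-induced liver injury prediction) training data set; call rule not given here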;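 on HepSE cholelithiasis: hepatic side effect score for cholelithiasis, drawn from the DILIps training data for predicting drug-induced liver injury; call rule not given here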;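 on HepSE cirrhosis: cirrhosis hepatic side effect score taken from the DILIps (drug-induced liver injury prediction) training set; call rule not given here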;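 on HepSE elevated liver function tests: hepatic side effect score for raised liver function tests, as recorded in the DILIps training set used for predicting drug-induced liver injury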; on HepSE hepatic failure: call rule not given here
Hepatotoxicity [4] = system: Hepatotoxicity; remark: listed apart in the source;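 on HepSE bilirubinemia: bilirubinemia hepatic side effect score drawn from the DILIps training data, a prediction system for drug-induced liver injury; call rule not given here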;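 on HepSE cholecystitis: Cholecystitis-related hepatic side effect score drawn from the DILIps (drug-induced liver injury prediction) training data set; call rule not given here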;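 on HepSE cholelithiasis: hepatic side effect score for cholelithiasis, drawn from the DILIps training data for predicting drug-induced liver injury; call rule not given here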;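 on HepSE cirrhosis: cirrhosis hepatic side effect score taken from the DILIps (drug-induced liver injury prediction) training set; call rule not given here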;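 on HepSE elevated liver function tests: hepatic side effect score for raised liver function tests, as recorded in the DILIps training set used for predicting drug-induced liver injury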; on HepSE hepatic failure: call rule not given here
Hepatotoxicity [5] = system: Hepatotoxicity; remark: listed apart in the source; on HepSE hepatic failure: call rule not given here
Hepatotoxicity [6] = system: Hepatotoxicity; remark: listed apart in the source; on HepSE hepatic failure: call rule not given here
Hepatotoxicity [7] = system: Hepatotoxicity; remark: listed apart in the source
Hepatotoxicity [8] = system: Hepatotoxicity; remark: listed apart in the source
Hepatotoxicity [9] = system: Hepatotoxicity; remark: listed apart in the source
Hepatotoxicity [10] = system: Hepatotoxicity; remark: listed apart in the source
Hepatotoxicity [11] = system: Hepatotoxicity; remark: listed apart in the source
Hepatotoxicity [12] = system: Hepatotoxicity; remark: listed apart in the source
Hepatotoxicity [13] = system: Hepatotoxicity; remark: listed apart in the source
Hepatotoxicity [14] = system: Hepatotoxicity; remark: listed apart in the source

Compound | HepSE_bilirubinemia (Hepatotoxicity [1]) | HepSE_cholecystitis (Hepatotoxicity [2]) | HepSE_cholelithiasis (Hepatotoxicity [3]) | HepSE_cirrhosis (Hepatotoxicity [4]) | HepSE_elevated liver function tests (Hepatotoxicity [5]) | HepSE_hepatic failure (Hepatotoxicity [6]) | HepSE_hepatic necrosis (Hepatotoxicity [7]) | HepSE_hepatitis (Hepatotoxicity [8]) | HepSE_hepatomegaly (Hepatotoxicity [9]) | HepSE_jaundice (Hepatotoxicity [10]) | HepSE_liver disease (Hepatotoxicity [11]) | HepSE_liver fatty (Hepatotoxicity [12]) | HepSE_liver function tests abnormal (Hepatotoxicity [13]) | HepSE_Combined Scores (Hepatotoxicity [14]) | also measured
Cc1ccsc1C(=CCCN1CCC[C@@H](C(=O)O)C1)c1sccc1C [TIAGABINE] | 0 | 1 | 1 | 0 | 0 | 0 | 0 | 0 | 1 | 0 | 0 | 0 | 1 | 4 | 
O=c1[nH]cnc2c1ncn2[C@H]1CC[C@@H](CO)O1 [DIDANOSINE] | 0 | 0 | 0 | 0 | 0 | 1 | 0 | 1 | 1 | 0 | 0 | 1 | 0 | 4 | 
Nc1nc2c(c(=O)[nH]1)N(C=O)C(CNc1ccc(C(=O)N[C@@H](CCC(=O)O)C(=O)O)cc1)CN2 (stereo partly drawn) [LEUCOVORIN] | 0 | 0 | 0 | 0 | 0 | 0 | 0 | 0 | 0 | 0 | 0 | 0 | 0 | 0 | 
C[C@@H](O)[C@H]1C(=O)N2C(C(=O)O)=C(S[C@@H]3CN[C@H](C(=O)N(C)C)C3)[C@H](C)[C@H]12 [MEROPENEM] | 0 | 0 | 0 | 0 | 0 | 1 | 0 | 1 | 0 | 1 | 0 | 0 | 0 | 3 | 
CNCCC=C1c2ccccc2CCc2ccccc21 [NORTRIPTYLINE] |  |  |  |  |  |  |  |  |  |  |  |  |  |  | HepSE_bilirubinemia (Hepatotoxicity [1]; Liver): 0; HepSE_cholecystitis (Hepatotoxicity [2]; Liver): 0; HepSE_cholelithiasis (Hepatotoxicity [3]; Liver): 0; HepSE_cirrhosis (Hepatotoxicity [4]; Liver): 0; HepSE_elevated liver function tests (Hepatotoxicity [5]; Liver): 0; HepSE_hepatic failure (Hepatotoxicity [6]; Liver): 0; HepSE_hepatic necrosis (Hepatotoxicity [7]; Liver): 1; HepSE_hepatitis (Hepatotoxicity [8]; Liver): 1; HepSE_hepatomegaly (Hepatotoxicity [9]; Liver): 0; HepSE_jaundice (Hepatotoxicity [10]; Liver): 1; HepSE_liver disease (Hepatotoxicity [11]; Liver): 0; HepSE_liver fatty (Hepatotoxicity [12]; Liver): 0; HepSE_liver function tests abnormal (Hepatotoxicity [13]; Liver): 0; HepSE_Combined Scores (Hepatotoxicity [14]; Liver): 3
CNCCCC12CCC(c3ccccc31)c1ccccc12 [MAPROTILINE] |  |  |  |  |  |  |  |  |  |  |  |  |  |  | HepSE_bilirubinemia (Hepatotoxicity [1]; Liver): 0; HepSE_cholecystitis (Hepatotoxicity [2]; Liver): 0; HepSE_cholelithiasis (Hepatotoxicity [3]; Liver): 0; HepSE_cirrhosis (Hepatotoxicity [4]; Liver): 0; HepSE_elevated liver function tests (Hepatotoxicity [5]; Liver): 0; HepSE_hepatic failure (Hepatotoxicity [6]; Liver): 0; HepSE_hepatic necrosis (Hepatotoxicity [7]; Liver): 0; HepSE_hepatitis (Hepatotoxicity [8]; Liver): 0; HepSE_hepatomegaly (Hepatotoxicity [9]; Liver): 0; HepSE_jaundice (Hepatotoxicity [10]; Liver): 1; HepSE_liver disease (Hepatotoxicity [11]; Liver): 0; HepSE_liver fatty (Hepatotoxicity [12]; Liver): 0; HepSE_liver function tests abnormal (Hepatotoxicity [13]; Liver): 0; HepSE_Combined Scores (Hepatotoxicity [14]; Liver): 1
CC(=O)[O-].[Na+] [SODIUM ACETATE] |  |  |  |  |  |  |  |  |  |  |  |  |  |  | HepSE_bilirubinemia (Hepatotoxicity [1]; Liver): 0; HepSE_cholecystitis (Hepatotoxicity [2]; Liver): 0; HepSE_cholelithiasis (Hepatotoxicity [3]; Liver): 0; HepSE_cirrhosis (Hepatotoxicity [4]; Liver): 0; HepSE_elevated liver function tests (Hepatotoxicity [5]; Liver): 0; HepSE_hepatic failure (Hepatotoxicity [6]; Liver): 0; HepSE_hepatic necrosis (Hepatotoxicity [7]; Liver): 0; HepSE_hepatitis (Hepatotoxicity [8]; Liver): 0; HepSE_hepatomegaly (Hepatotoxicity [9]; Liver): 0; HepSE_jaundice (Hepatotoxicity [10]; Liver): 0; HepSE_liver disease (Hepatotoxicity [11]; Liver): 0; HepSE_liver fatty (Hepatotoxicity [12]; Liver): 0; HepSE_liver function tests abnormal (Hepatotoxicity [13]; Liver): 0; HepSE_Combined Scores (Hepatotoxicity [14]; Liver): 0
COc1cc2c(cc1OC)[C@@H](Cc1cc(OC)c(OC)c(OC)c1)[N+](C)(CCCOC(=O)CC/C=C/CCC(=O)OCCC[N+]1(C)CCc3cc(OC)c(OC)cc3[C@H]1Cc1cc(OC)c(OC)c(OC)c1)CC2 (stereo partly drawn) | 0 | 0 | 0 | 0 | 0 | 0 | 0 | 0 | 0 | 0 | 0 | 0 | 0 | 0 | 
N[C@@H](Cc1ccc(N(CCCl)CCCl)cc1)C(=O)O | 0 | 0 | 0 | 0 | 0 | 0 | 0 | 1 | 0 | 1 | 0 | 0 | 1 | 3 | 
NCC(=O)O [GLYCINE] |  |  |  |  |  |  |  |  |  |  |  |  |  |  | HepSE_bilirubinemia (Hepatotoxicity [1]; Liver): 0; HepSE_cholecystitis (Hepatotoxicity [2]; Liver): 0; HepSE_cholelithiasis (Hepatotoxicity [3]; Liver): 0; HepSE_cirrhosis (Hepatotoxicity [4]; Liver): 0; HepSE_elevated liver function tests (Hepatotoxicity [5]; Liver): 0; HepSE_hepatic failure (Hepatotoxicity [6]; Liver): 0; HepSE_hepatic necrosis (Hepatotoxicity [7]; Liver): 0; HepSE_hepatitis (Hepatotoxicity [8]; Liver): 0; HepSE_hepatomegaly (Hepatotoxicity [9]; Liver): 0; HepSE_jaundice (Hepatotoxicity [10]; Liver): 0; HepSE_liver disease (Hepatotoxicity [11]; Liver): 0; HepSE_liver fatty (Hepatotoxicity [12]; Liver): 0; HepSE_liver function tests abnormal (Hepatotoxicity [13]; Liver): 0; HepSE_Combined Scores (Hepatotoxicity [14]; Liver): 0
CC1(C)O[C@@H]2C[C@H]3[C@@H]4C[C@H](F)C5=CC(=O)CC[C@]5(C)[C@H]4[C@@H](O)C[C@]3(C)[C@]2(C(=O)CO)O1 [FLURANDRENOLIDE] | 0 | 0 | 0 | 0 | 0 | 0 | 0 | 0 | 0 | 0 | 0 | 0 | 0 | 0 | 
C[C@@H]1C[C@H]2[C@@H]3C[C@H](F)C4=CC(=O)C=C[C@]4(C)[C@@]3(F)[C@@H](O)C[C@]2(C)[C@@]1(O)C(=O)SCF [FLUTICASONE] | 0 | 1 | 0 | 0 | 0 | 0 | 0 | 0 | 0 | 0 | 0 | 0 | 0 | 1 | 
CCCOc1ccc(C(=O)OCCN(CC)CC)cc1N [PROPARACAINE] | 0 | 0 | 0 | 0 | 0 | 0 | 0 | 0 | 0 | 0 | 0 | 0 | 0 | 0 | 
CNC(=O)c1c(I)c(NC(C)=O)c(I)c(C(=O)O)c1I [IOTHALAMIC ACID] | 0 | 0 | 0 | 0 | 0 | 0 | 0 | 0 | 0 | 0 | 0 | 0 | 0 | 0 | 
CCCc1nn(C)c2c(=O)[nH]c(-c3cc(S(=O)(=O)N4CCN(C)CC4)ccc3OCC)nc12 | 0 | 0 | 0 | 0 | 0 | 0 | 0 | 0 | 0 | 0 | 0 | 0 | 1 | 1 | 
CC1(C)S[C@@H]2[C@H](NC(=O)Cc3ccccc3)C(=O)N2[C@H]1C(=O)O [PENICILLIN G] | 0 | 0 | 0 | 0 | 0 | 0 | 0 | 0 | 0 | 0 | 0 | 0 | 0 | 0 | 
OCCOCCN1CCN(C(c2ccccc2)c2ccc(Cl)cc2)CC1 (stereo not drawn) [HYDROXYZINE] | 0 | 0 | 0 | 0 | 0 | 0 | 0 | 0 | 0 | 0 | 0 | 0 | 0 | 0 | 

From ChEMBL document CHEMBL1909294, “Translating clinical findings into knowledge in drug safety evaluation--drug induced liver injury prediction system (DILIps)” (PLoS Comput Biol, 2011)
